The text below walks through data of ChEMBL document CHEMBL5665443, “Enzyme Inhibitor Single Concentration assay results for EUbOPEN Chemogenomics Library” (2024).

In experiment [1] the target is T1, Single-strand selective monofunctional uracil DNA glycosylase (Homo sapiens) (UniProt Q53HV7).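 Further: enzymatic SMUG1 assay coupled with APE1, reading fluorescence at 594 nm released when a quenched double-stranded DNA oligonucleotide substrate is cleaved and separated.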
T1 sequence (whole entry): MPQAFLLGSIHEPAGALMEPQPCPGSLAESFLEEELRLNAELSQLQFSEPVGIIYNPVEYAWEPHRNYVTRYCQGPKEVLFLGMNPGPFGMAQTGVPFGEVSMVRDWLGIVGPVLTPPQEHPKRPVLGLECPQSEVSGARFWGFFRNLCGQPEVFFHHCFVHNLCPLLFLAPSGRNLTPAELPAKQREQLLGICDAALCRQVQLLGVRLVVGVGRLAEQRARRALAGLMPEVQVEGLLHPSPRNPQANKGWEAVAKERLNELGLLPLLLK
To be noted: Hit No.
Description: Inhibition of SMUG1 by quantifying inhibition of SMUG1-mediated cleavage and dissociation of quenched duplex DNA oligonucleotides, measured as fluorescence at 594 nm. To generate a functional strand incision and increase turn-over this assay is coupled to APE1.

The target in experiment [2] is T2, Endonuclease 8-like 2 (Homo sapiens) (UniProt Q969S2).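 Further: fluorescence at 594 nm reports NEIL2 cutting and release of a quenched double-stranded DNA oligo substrate, reduced signal read as inhibition.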
T2 sequence (whole entry): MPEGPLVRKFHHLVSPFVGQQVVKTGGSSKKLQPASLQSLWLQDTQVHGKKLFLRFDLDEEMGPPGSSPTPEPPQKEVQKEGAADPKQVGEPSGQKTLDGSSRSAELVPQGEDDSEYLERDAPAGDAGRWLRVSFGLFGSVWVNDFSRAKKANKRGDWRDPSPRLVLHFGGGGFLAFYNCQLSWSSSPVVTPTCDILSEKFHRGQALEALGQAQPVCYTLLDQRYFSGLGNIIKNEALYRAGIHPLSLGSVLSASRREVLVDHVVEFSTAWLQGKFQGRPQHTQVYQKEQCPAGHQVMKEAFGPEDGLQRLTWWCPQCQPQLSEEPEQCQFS
To be noted: Hit No.
Description: Inhibition of NEIL2 by quantifying inhibition of NEIL2-mediated cleavage and dissociation of quenched duplex DNA oligonucleotides, measured as fluorescence at 594 nm.

The target in experiment [3] is Uracil-DNA glycosylase (Homo sapiens) (UniProt P13051). To be noted: Hit No.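 Further: UNG excision on a quenched double-stranded DNA oligo probe, with APE1 added for strand incision and turnover, read as fluorescence at 594 nm as strands separate.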
Description: Inhibition of UNG by quantifying inhibition of UNG-mediated cleavage and dissociation of quenched duplex DNA oligonucleotides, measured as fluorescence at 594 nm. To generate a functional strand incision and increase turn-over this assay is coupled to APE1.
Experiment [4] addresses Endonuclease 8-like 1 (Homo sapiens) (UniProt Q96FI4). To be noted: Hit No.
Description: Inhibition of NEIL1 by quantifying inhibition of NEIL1-mediated cleavage and dissociation of quenched duplex DNA oligonucleotides, measured as fluorescence at 594 nm.
Experiment [5] has as its target Methyl-CpG-binding domain protein 4 (Homo sapiens) (UniProt O95243). To be noted: Hit No.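 Further: MBD4 activity read as fluorescence at 594 nm from cleavage and release of a quenched duplex DNA oligonucleotide, with APE1 coupled to incise the strand and raise turnover.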
Description: Inhibition of MBD4 by quantifying inhibition of MBD4-mediated cleavage and dissociation of quenched duplex DNA oligonucleotides, measured as fluorescence at 594 nm. To generate a functional strand incision and increase turn-over this assay is coupled to APE1.
Experiment [6] deals with N-glycosylase/DNA lyase (Homo sapiens) (UniProt O15527). To be noted: Hit No.
Description: Inhibition of OGG1 by quantifying inhibition of OGG1-mediated cleavage and dissociation of quenched duplex DNA oligonucleotides, measured as fluorescence at 594 nm. To generate a functional strand incision and increase turn-over this assay is coupled to APE1.
Experiment [7] has as its target G/T mismatch-specific thymine DNA glycosylase (Homo sapiens) (UniProt Q13569). To be noted: Hit No.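 Further: human TDG cleavage of quenched duplex DNA oligonucleotides coupled to APE1, strand release read as fluorescence at 594 nm, inhibition of TDG activity.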
Description: Inhibition of TDG by quantifying inhibition of TDG-mediated cleavage and dissociation of quenched duplex DNA oligonucleotides, measured as fluorescence at 594 nm. To generate a functional strand incision and increase turn-over this assay is coupled to APE1.
The target in experiment [8] is T3, Endonuclease III-like protein 1 (Homo sapiens) (UniProt P78549).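 Further: enzyme assay tracking NTHL1 cutting and release of a quenched double-stranded DNA oligo substrate, read as fluorescence at 594 nm.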
T3 sequence (whole entry): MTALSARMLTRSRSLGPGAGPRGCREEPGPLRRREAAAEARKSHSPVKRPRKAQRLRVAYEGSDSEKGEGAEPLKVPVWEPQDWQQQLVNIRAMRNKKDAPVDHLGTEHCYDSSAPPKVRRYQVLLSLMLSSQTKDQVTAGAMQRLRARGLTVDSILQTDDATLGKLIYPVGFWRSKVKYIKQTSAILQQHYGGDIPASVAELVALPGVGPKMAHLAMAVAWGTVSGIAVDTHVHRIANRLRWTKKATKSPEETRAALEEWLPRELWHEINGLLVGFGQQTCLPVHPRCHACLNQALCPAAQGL
To be noted: Compound Concentration 10.0 uM, Hit No.
Description: Inhibition of NTHL1 by quantifying inhibition of NTHL1-mediated cleavage and dissociation of quenched duplex DNA oligonucleotides, measured as fluorescence at 594 nm.

In general, inhibition refers to the drop in the measured response relative to a control, in per cent.

G/T mismatch-specific thymine DNA glycosylase (Homo sapiens), sequence (Q13569 whole entry): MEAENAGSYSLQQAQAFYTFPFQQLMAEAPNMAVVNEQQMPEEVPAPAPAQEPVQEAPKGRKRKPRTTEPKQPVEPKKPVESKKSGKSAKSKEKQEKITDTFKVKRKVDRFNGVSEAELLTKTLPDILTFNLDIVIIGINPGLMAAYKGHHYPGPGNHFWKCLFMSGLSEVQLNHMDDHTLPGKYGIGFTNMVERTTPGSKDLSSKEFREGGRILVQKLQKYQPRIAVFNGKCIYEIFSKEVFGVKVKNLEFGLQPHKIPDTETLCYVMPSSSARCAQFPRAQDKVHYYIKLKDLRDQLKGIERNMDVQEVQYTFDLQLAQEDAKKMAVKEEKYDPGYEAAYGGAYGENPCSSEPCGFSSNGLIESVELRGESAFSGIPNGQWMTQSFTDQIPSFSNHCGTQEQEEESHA
N-glycosylase/DNA lyase (Homo sapiens), sequence (O15527 whole entry): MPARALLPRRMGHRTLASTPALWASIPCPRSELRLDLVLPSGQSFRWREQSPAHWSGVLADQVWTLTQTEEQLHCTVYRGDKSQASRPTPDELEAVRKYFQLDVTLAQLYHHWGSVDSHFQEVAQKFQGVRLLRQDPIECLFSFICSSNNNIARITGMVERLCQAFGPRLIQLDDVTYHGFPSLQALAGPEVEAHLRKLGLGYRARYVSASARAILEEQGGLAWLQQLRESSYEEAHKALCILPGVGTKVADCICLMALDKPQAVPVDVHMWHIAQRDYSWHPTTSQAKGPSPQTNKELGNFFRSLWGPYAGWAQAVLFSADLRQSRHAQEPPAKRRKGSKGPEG
Methyl-CpG-binding domain protein 4 (Homo sapiens), sequence (O95243 whole entry, the tested form may be a part): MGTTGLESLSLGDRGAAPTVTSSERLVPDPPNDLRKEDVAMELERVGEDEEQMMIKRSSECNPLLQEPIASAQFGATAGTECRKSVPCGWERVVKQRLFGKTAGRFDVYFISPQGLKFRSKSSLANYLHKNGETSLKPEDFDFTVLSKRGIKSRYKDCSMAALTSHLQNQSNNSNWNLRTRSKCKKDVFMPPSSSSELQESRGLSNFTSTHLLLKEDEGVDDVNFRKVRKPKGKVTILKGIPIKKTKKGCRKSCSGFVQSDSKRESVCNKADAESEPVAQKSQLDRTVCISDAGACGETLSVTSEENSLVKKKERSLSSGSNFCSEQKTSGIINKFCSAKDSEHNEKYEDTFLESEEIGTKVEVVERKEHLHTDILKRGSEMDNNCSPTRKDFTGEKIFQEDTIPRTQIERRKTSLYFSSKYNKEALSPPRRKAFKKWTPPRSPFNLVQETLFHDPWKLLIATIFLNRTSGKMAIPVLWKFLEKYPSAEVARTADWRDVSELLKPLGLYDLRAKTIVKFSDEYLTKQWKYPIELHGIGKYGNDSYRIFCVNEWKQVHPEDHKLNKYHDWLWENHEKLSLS
Uracil-DNA glycosylase (Homo sapiens), sequence (P13051 whole entry): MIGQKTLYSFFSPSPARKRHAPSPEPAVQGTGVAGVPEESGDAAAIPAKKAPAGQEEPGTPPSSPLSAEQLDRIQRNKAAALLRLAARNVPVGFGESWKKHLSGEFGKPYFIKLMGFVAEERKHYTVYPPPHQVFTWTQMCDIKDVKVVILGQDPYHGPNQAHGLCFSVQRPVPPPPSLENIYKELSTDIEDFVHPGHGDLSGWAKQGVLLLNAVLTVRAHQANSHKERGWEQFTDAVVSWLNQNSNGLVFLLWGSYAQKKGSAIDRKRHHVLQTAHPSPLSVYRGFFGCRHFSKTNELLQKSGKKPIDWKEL
Endonuclease 8-like 1 (Homo sapiens), sequence (Q96FI4 whole entry, the tested form may be a part): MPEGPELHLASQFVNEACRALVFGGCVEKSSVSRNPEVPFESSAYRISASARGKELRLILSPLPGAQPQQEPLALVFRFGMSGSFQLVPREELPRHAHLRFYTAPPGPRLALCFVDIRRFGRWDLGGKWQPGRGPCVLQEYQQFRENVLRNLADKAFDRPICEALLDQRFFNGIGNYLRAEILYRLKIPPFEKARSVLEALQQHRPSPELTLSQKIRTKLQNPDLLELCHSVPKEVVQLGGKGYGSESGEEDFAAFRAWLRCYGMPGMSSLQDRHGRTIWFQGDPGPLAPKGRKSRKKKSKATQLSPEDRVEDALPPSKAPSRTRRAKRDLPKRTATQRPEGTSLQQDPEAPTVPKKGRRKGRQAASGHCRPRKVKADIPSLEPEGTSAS

With `CN1CCN(c2ccc(/C=C(\C#N)c3ccccc3Br)cc2)CC1`, the inhibition in experiment [1] (Compound Concentration 10.0 uM) is 7.83%; in experiment [2] (Compound Concentration 10.0 uM) it was -0.489%; in experiment [3] (Compound Concentration 10.0 uM), 4.48%; in experiment [4] (Compound Concentration 10.0 uM) it was -2.11%; in experiment [5] (Compound Concentration 10.0 uM), 55.3%; in experiment [6] (Compound Concentration 10.0 uM), 25.6%. The inhibition in experiment [7] (Compound Concentration 10.0 uM) came out at 42.1%.
Regarding `O=C(Nc1ccc(Oc2ccc(F)cc2)cc1)N1CCc2ncccc2[C@H]1c1ccc(F)cc1`, the inhibition in experiment [1] (Compound Concentration 1.0 uM) is 3.93%; in experiment [2] (Compound Concentration 1.0 uM), -5.34%; in experiment [3] (Compound Concentration 1.0 uM) it was -3.31%; in experiment [4] (Compound Concentration 1.0 uM), -9.68%; in experiment [5] (Compound Concentration 1.0 uM) it was 71%; in experiment [6] (Compound Concentration 1.0 uM) it was -3.07%. The inhibition in experiment [7] (Compound Concentration 1.0 uM) came out at 48.4%.
In the case of `Cc1noc([C@H]2C[C@@H](c3ccc(C(F)(F)F)cc3)CN(C(=O)N3CCS(=O)(=O)C3)C2)n1`, the inhibition in experiment [1] (Compound Concentration 10.0 uM) was 5.39%; in experiment [2] (Compound Concentration 10.0 uM) it was -5.59%; in experiment [3] (Compound Concentration 10.0 uM) it was -0.51%; in experiment [5] (Compound Concentration 10.0 uM) it was 42.2%; in experiment [6] (Compound Concentration 10.0 uM), 1.56%; in experiment [7] (Compound Concentration 10.0 uM) it was 53.6%.
`Cc1c(Cc2ccc3ccccc3n2)c2cc(F)ccc2n1CC(=O)O`: the inhibition in experiment [2] (Compound Concentration 10.0 uM) is 30.2%; in experiment [4] (Compound Concentration 10.0 uM), 9.88%; in experiment [8] it was -6.14%.
`CC(=O)C1=C(C)N(c2cccc(C(F)(F)F)c2)C(=O)N[C@@H]1c1ccc(C#N)nc1`: the inhibition in experiment [1] (Compound Concentration 10.0 uM) is -3.19%; in experiment [2] (Compound Concentration 10.0 uM), 3.85%; in experiment [3] (Compound Concentration 10.0 uM) it was 2.25%; in experiment [5] (Compound Concentration 10.0 uM), 51.4%; in experiment [6] (Compound Concentration 10.0 uM), -1.15%; in experiment [7] (Compound Concentration 10.0 uM) it was 45.6%.
Regarding `CCCCCCOc1cc2n(c(=O)n1)CCc1cc(OC)c(OC)cc1-2`, the values for the inhibition in experiment [2] (Compound Concentration 10.0 uM), in experiment [4] (Compound Concentration 10.0 uM) and in experiment [8] were -5.45%, 1.64% and -4.39%, respectively.
As to `CC(C=CC1=C(C)CCCC1(C)C)=CC=CC(C)=CC(=O)O`, the inhibition was 8.2% in experiment [1] (Compound Concentration 10.0 uM); -4.83% in experiment [2] (Compound Concentration 10.0 uM); -0.014% in experiment [3] (Compound Concentration 10.0 uM); 57.7% in experiment [5] (Compound Concentration 10.0 uM); 83.6% in experiment [6] (Compound Concentration 10.0 uM); 96.3% in experiment [7] (Compound Concentration 10.0 uM).
`CS(=O)(=O)NCC[C@H](NC(=O)c1cncc2c1cnn2-c1ccc(F)cc1)c1ccnc(S(C)(=O)=O)c1`: the inhibition in experiment [1] (Compound Concentration 1.0 uM) is 6.65%; in experiment [2] (Compound Concentration 1.0 uM) it was 0.0213%; in experiment [3] (Compound Concentration 1.0 uM), -0.0979%; in experiment [4] (Compound Concentration 1.0 uM), -4.23%; in experiment [5] (Compound Concentration 1.0 uM) it was 64.7%; in experiment [6] (Compound Concentration 1.0 uM) it was -0.705%. Besides, the inhibition in experiment [7] (Compound Concentration 1.0 uM) is 50.4%.
With `CN1C(=O)c2sccc2N(C)c2nc(Nc3ccc(S(N)(=O)=O)cc3)ncc21`, the inhibition in experiment [1] (Compound Concentration 1.0 uM) was 9.9%; in experiment [2] (Compound Concentration 1.0 uM), -6.76%; in experiment [3] (Compound Concentration 1.0 uM), -4.58%; in experiment [4] (Compound Concentration 1.0 uM), -7.66%; in experiment [5] (Compound Concentration 1.0 uM) it was 27.4%; in experiment [6] (Compound Concentration 1.0 uM), 5.53%. Besides, the inhibition in experiment [7] (Compound Concentration 1.0 uM) was found to be 40.8%.
For `CCC(F)(F)c1cc(N2CCC(S(C)(=O)=O)CC2)nc2sc(C(N)=O)c(N)c12`, the inhibition in experiment [1] (Compound Concentration 10.0 uM) was 8.86%; in experiment [2] (Compound Concentration 10.0 uM) it was -1.2%; in experiment [3] (Compound Concentration 10.0 uM) it was 3.95%; in experiment [4] (Compound Concentration 10.0 uM), -3.46%; in experiment [5] (Compound Concentration 10.0 uM), 38.2%; in experiment [6] (Compound Concentration 10.0 uM), -8.21%. Besides, in experiment [7] (Compound Concentration 10.0 uM), the inhibition is 39.1%.
Regarding `Oc1c(CN2CCN(c3ccccn3)CC2)cc(Cl)c2cccnc12`, the inhibition is 7.5% in experiment [2] (Compound Concentration 10.0 uM), -9.54% in experiment [4] (Compound Concentration 10.0 uM) and 39.3% in experiment [8].
Take `O=C(NCCN1CCOCC1)c1ccc2c(c1)C(=O)c1ccc(Nc3ccc(F)c(NC(=O)c4ccccc4)c3)cc1CC2`: the inhibition was -4.66% in experiment [2] (Compound Concentration 10.0 uM), -5.6% in experiment [4] (Compound Concentration 10.0 uM) and 0.366% in experiment [8].
In the case of `CCC[C@H]1CNCc2c1[nH]c(=O)c(C#N)c2N1CCC2(CC1)CC2`, the inhibition is 6.33% in experiment [1] (Compound Concentration 10.0 uM); -0.999% in experiment [2] (Compound Concentration 10.0 uM); 0.94% in experiment [3] (Compound Concentration 10.0 uM); 9.71% in experiment [4] (Compound Concentration 10.0 uM); 58.5% in experiment [5] (Compound Concentration 10.0 uM); 2.34% in experiment [6] (Compound Concentration 10.0 uM). Also, the inhibition in experiment [7] (Compound Concentration 10.0 uM) is 100%.
